Reference: patent EP0753513A2, “Optically active triazole derivative, process for producing the same, antifungal agent, and use thereof” (NIHON NOHYAKU CO., LTD., priority 1995, dated 1997)

How the values were obtained:
Candida albicans IFO1270 [1] = experiment: Growth inhibition of Candida albicans in Sabouraud's glucose broth (Test Example 1); format: cell-based; details: two days incubation at 37°C under shaking; for Growth inhibition ratio 0.1 µg/ml (%): 0.1 µg/ml test compound; for Growth inhibition ratio 10 µg/ml (%): 10 µg/ml test compound
Protocol: Sabouraud's glucose broth (9.8 ml) was inoculated with 0.1 ml of Candida albicans IFO1270 (1.0×10^6 cells/ml). Then 0.1 ml of a solution of each test compound dissolved with dimethylsulfoxide in an appropriate concentration was added to give concentrations of 10 µg/ml and 0.1 µg/ml. Two days after incubating at 37°C under shaking, the growth inhibition ratio was measured. […]

Candida albicans IFO1270 [2] = experiment: Survival of mice inoculated with Candida albicans after oral treatment (Test Example 2); format: in vivo; details: ddY mice; 0.5% aqueous CMC solution containing 0.02% of test compound, orally, 5 ml/kg once a day for 4 days; survival ratio on final day (10 days following inoculation)
Protocol: ddY mice aged 6 weeks were divided into a control group having 10 mice and test groups each having 5 mice. After inoculating with 4 ml/kg of Candida albicans IFO1270 (2.5×10^7 cells/ml), which had been incubated on Sabouraud's glucose agar medium at 37°C for 2 hours, a 0.5% aqueous CMC solution (containing 10% of polyethylene glycol 400 and 0.1% of Tween 80) containing 0.02% of each test compound was orally administered to the mice in a dose of 5 ml/kg once a day for 4 days. The viable […] were counted for 10 days following the inoculation and the survival ratio on the final day was calculated. […]

Row | Structure (SMILES) | Growth inhibition ratio 0.1 µg/ml (%) (Candida albicans IFO1270 [1]) | Growth inhibition ratio 10 µg/ml (%) (Candida albicans IFO1270 [1]) | Survival ratio (%) (Candida albicans IFO1270 [2])
1 | C[C@@H](Cc1ccc(C#N)cc1)[C@](O)(Cn1cncn1)c1ccc(F)cc1F [Compound 7, (2R,3S)-4-(4-cyanophenyl)-2-(2,4-difluorophenyl)-3-methyl-1-(1H-1,2,4-triazol-1-yl)butan-2-ol] | 55 | 70 | 100
2 | C[C@@H](Cc1ccc(F)cc1F)[C@](O)(Cn1cncn1)c1ccc(F)cc1F [Compound 2, (2R,3S)-2,4-bis(2,4-difluorophenyl)-3-methyl-1-(1H-1,2,4-triazol-1-yl)butan-2-ol] | 51 | 66 | 60
3 | CC(=O)N1CCN(c2ccc(OC[C@H]3CO[C@](Cn4ccnc4)(c4ccc(Cl)cc4Cl)O3)cc2)CC1 (relative stereo) [A, Cis-1-acetyl-4-[4-[[2-(2,4-dichlorophenyl)-2-(imidazol-1-ylmethyl)-1-3-oxolan-4-yl]methoxy]phenyl]piperazine, reference compound] | 47 | 59 | 40
4 | C[C@@H](Cc1ccc(F)cc1)[C@](O)(Cn1cncn1)c1ccc(F)cc1F [Compound 1, (2R,3S)-2-(2,4-difluorophenyl)-4-(4-fluorophenyl)-3-methyl-1-(1H-1,2,4-triazol-1-yl)butan-2-ol] | 48 | 64 | 80
